Experimental data: patent US7217548B2, “N-acetylglucosaminlytransferase and polynucleotide encoding the same” (National Institute of Advanced Industrial Science and …, priority 2000, dated 2007)
Entries after “also recorded” stand apart in the source; their conditions may differ. Where two headings read alike, the source gives them in different places. Peptide text beside a SMILES is read from it. * marks the point of attachment. αMan = OC[C@H]1O[C@H](*)[C@@H](O)[C@@H](O)[C@@H]1O

Assays:
OMGnT [1] = biological target: T1, OMGnT (Homo sapiens, UniProt Q8WZA1, M623V); assay: OMGnT activity of microsomal fractions of HEK293T cells transfected with full-length human OMGnT plasmid; assay type: biochemical
T1 construct: a cDNA of approximately 2.0 kb encoding the full length of human OMGnT is inserted; expressed in transfected cells; host or cells: HEK293T
T1 sequence (Q8WZA1 whole entry M623V): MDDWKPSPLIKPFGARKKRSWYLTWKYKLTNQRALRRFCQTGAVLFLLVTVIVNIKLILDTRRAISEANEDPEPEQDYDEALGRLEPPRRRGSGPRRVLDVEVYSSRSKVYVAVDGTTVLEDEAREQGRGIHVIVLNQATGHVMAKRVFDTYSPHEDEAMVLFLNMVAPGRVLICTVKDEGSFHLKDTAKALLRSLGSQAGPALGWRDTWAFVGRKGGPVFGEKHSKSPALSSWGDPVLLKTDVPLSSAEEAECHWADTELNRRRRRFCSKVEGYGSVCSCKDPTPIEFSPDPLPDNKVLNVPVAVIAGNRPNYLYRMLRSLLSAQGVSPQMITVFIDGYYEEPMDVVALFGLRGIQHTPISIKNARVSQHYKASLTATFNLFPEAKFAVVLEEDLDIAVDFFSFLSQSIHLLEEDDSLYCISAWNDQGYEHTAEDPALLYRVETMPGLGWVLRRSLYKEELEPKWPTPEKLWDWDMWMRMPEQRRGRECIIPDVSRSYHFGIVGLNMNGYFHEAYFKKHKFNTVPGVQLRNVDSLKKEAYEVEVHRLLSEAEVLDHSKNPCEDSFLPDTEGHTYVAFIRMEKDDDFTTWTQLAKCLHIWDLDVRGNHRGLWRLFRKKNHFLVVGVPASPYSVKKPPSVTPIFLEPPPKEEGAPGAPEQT
Procedure: (§1) The enzyme solution was added to 140 mM MES [2-(N-morpholino) ethanesulfonic acid] buffer (pH 7.0) containing 0.4 mM Man-peptide, 0.2 mM UDP-[^3H]GlcNAc (up to 228,000 dpm/nmol), 10 mM MnCl2, 5 mM AMP, 200 mM GlcNAc, 2%(w/v) Triton X-100, 10% glycerol, 2 μg/ml antipain, 2 μg/ml chymostatin, 3 μg/ml pepstatin A, 2 μg/ml leupeptin, 1 mM benzamidine-HCl, and 1 mM PMSF (phenylmethylsulfonyl fluoride) to prepare 50 μl of reaction solution. After the reaction at 37° C. for 3 hours, the reaction was terminated by 3 minutes of boiling. The reaction mixture was then filtered with a filter Ultrafree-MC (Millipore) having a pore size of 0.22 μm to remove solids, and analyzed by Wakopak 5C18-200 column (4.6×250 mm, Wako Pure Chemical Industries, Ltd.). The separation was carried out using concentration gradient with Solution A and Solution B at a flow rate of 1.0 ml/min. […] Peptide detection was carried out at 214 nm, and the radioactivity of each fraction was assayed using a liquid scintillation counter.
The mixture was centrifuged for 10 minutes at 900×g, and then the obtained supernatant was centrifuged for 1 hour at 100,000×g, thereby obtaining a microsomal fraction as a precipitate. In the case of preparing solubilized enzyme, the precipitate was suspended in 140 mM MES buffer (pH 7.0) (referred to as solubilization buffer) containing 5 mM AMP, 200 mM GlcNAc, 2%(w/v) Triton X-100, 10% glycerol, 2 μg/ml antipain, 2 μg/ml chymostatin, 3 μg/ml pepstatin A, 2 μg/ml leupeptin, 1 mM benzamidine-HCl, and 1 mM PMSF(phenylmethylsulfonyl fluoride) and sonicated. Thereafter, the resultant was centrifuged for 1 hour at 100,000×g and the obtained supernatant was used.
The expression plasmid was transiently expressed in an HEK293T cell in the same manner as described in Example 3. 15 μg of plasmid was transfected to 50–70% confluent cells in a 10 cm petri dish. After overnight cultivation, the medium was changed. After a further 48-hour cultivation, cells were collected.
A microsomal fraction was prepared from cells by the method described in Example 2, and OMGnT activity of a soluble fraction and an insoluble fraction were assayed by the method described in Example 1.

[2] = biological target: T2, OMGnT derived from a newborn rat brain (Rattus norvegicus, UniProt Q5XIN7); assay: Divalent cation requirement for OMGnT activity; assay type: biochemical; details: for effect on OMGnT activity relative to Mn2+: 10 mM for each divalent cation; for Relative activity of OMGnT (%): each additive 10 mM, activity with 10 mM MnCl2 taken as 100%
T2 construct: from tissue; host or cells: newborn rat brain
T2 sequence (Q5XIN7 whole entry): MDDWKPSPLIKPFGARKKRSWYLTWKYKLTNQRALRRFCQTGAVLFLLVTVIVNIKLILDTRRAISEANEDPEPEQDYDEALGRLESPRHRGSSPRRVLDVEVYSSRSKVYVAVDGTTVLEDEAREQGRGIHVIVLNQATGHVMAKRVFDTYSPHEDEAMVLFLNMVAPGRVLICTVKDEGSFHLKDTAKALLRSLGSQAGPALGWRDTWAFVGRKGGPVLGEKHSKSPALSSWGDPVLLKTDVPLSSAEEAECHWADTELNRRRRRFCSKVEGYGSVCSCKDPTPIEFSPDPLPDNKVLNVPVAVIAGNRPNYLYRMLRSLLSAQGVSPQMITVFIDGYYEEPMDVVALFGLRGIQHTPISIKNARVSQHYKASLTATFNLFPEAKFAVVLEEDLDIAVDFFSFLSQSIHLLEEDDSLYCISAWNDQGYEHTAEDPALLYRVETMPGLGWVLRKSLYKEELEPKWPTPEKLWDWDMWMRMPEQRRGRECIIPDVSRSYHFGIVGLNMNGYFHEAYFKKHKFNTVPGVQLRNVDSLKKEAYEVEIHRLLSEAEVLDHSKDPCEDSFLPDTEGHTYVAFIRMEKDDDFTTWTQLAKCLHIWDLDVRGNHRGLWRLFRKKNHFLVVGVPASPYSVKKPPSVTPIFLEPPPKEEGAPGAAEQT
Procedure: *OMGnT activity was determined by adding each of the metal ions (10 mM) to a OMGnT sample. The figures in the Table are expressed in percent, taking the activity when 10 mM MnCl2 is added as 100%.

OMGnT [3] = assay: OMGnT activity in serum-free medium of HEK293T cells expressing solubilized enzymes; assay type: biochemical, human; details: serum-free medium of HEK293T transfectants
Procedure: as §1
Each secretory expression plasmid was transiently expressed in a HEK293T cell derived from human embryonic kidney. Usually, HEK293T cells were cultured in D-MEM (Gibco, #11995-065) containing 10% Fetal Calf Serum (Hyclone), 10 mM MEM Non-Essential Amino Acids solution (Gibco), 2 mM Glutamine (Gibco), and 100 units/ml Penicillin/100 μg/ml Streptomycin (Gibco). […]

GnT-I = biological target: T3, GnT-I (Homo sapiens, UniProt P26572); assay: GnT-I activity assay of solubilized enzymes; assay type: biochemical; details: method of Reference Example 2
T3 construct: Ig kappa chain secretory signal (N); made in house; host or cells: HEK293T (transient, secreted into serum-free medium)
T3 sequence (P26572 39-445 limits assumed): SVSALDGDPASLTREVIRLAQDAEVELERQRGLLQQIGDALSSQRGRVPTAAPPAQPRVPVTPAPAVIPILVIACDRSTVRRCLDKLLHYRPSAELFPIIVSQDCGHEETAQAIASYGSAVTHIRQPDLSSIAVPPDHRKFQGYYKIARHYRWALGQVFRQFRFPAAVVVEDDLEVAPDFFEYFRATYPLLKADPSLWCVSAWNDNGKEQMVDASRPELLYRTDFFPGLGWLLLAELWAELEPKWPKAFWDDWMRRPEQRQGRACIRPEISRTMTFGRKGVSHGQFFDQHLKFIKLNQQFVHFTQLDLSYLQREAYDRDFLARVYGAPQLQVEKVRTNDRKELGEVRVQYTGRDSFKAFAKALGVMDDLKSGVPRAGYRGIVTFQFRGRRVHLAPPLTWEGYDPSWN
Procedure: (§2) The activity of GnT-1 was assayed with a method by Yoshida et al. [Yoshida, S., Suzuki, M., Yamano, S., Takeuchi, M., Ikenaga, H., Kioka, N., Sakai, H., and Komano, T., Glycobiology, (1999), 9, 53–58] as described below. A 20 μl reaction solution was prepared by adding an enzyme source thereto so as to have a final concentration of 100 mM MES (pH 6.0), 20 mM MnCl2, 5 μM Manα1–6(Manα1–3)Manα1–6(Manα1–3)Manβ1–4GlcNAcβ1–4GlcNAc-PA(M5GN2-PA; Takara Shuzo, PA-Sugar Chain 017), 1 mM UDP-GlcNAc, 100 mM GlcNAc, 5 mM AMP, 1% Triton X-100, and 0.2% BSA. The reaction solution was incubated at 37° C. for 1 hour, and the reaction was terminated in boiling water. Thereafter, the reaction solution was analyzed by a reverse phase HPLC (Cosmosil 5C18-AR column) available from Nacalai Tesque.
(§3) When Manα1–6(Manα1–3)Manβ1–4GlcNAcβ1–4GlcNAc-PA (M3GN2-PA; Takara Shuzo, PA-Sugar Chain 016) was used as a sugar receptor, the same method was employed for analysis.

His-Xpress-sOMGnT(L) = biological target: T4, His-Xpress-sOMGnT(L) (Homo sapiens, UniProt Q8WZA1, M623V); assay: Substrate specificity and kinetic parameters of solubilized human OMGnT enzyme (L); assay type: biochemical; details: for OMGnT relative activity (%) His-Xpress-sOMGnT(L): as sugar receptor, activity with Man-peptide regarded as 100%
T4 construct: 595 amino acids from 66: Ser thereof (66: Ser to 660: Thr), respectively; Ig kappa chain secretory signal (N); made in house; host or cells: HEK293T (transient, secreted into serum-free medium)
T4 sequence (Q8WZA1 66-660 M623V): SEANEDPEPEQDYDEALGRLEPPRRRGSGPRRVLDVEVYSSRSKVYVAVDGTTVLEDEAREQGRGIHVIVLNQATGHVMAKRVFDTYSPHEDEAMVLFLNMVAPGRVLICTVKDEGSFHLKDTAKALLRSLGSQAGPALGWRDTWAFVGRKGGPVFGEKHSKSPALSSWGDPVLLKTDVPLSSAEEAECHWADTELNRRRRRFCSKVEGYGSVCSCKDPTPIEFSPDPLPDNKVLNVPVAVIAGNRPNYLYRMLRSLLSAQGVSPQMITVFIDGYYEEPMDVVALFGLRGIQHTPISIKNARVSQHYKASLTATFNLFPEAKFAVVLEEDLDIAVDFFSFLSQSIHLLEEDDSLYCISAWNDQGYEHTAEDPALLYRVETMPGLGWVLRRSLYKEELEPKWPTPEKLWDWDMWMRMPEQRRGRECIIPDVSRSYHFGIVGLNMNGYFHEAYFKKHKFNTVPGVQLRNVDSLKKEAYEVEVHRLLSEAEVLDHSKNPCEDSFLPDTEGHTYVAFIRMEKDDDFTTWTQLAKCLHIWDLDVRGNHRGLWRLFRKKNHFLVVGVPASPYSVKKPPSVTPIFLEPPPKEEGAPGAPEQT
Procedure: (§4) […] […] The reaction mixture was then filtered with a filter Ultrafree-MC (Millipore) having a pore size of 0.22 μm to remove solids, and analyzed by Wakopak 5C18-200 column (4.6×250 mm, Wako Pure Chemical Industries, Ltd.). The separation was carried out using concentration gradient with Solution A and Solution B at a flow rate of 1.0 ml/min. […] Peptide detection was carried out at 214 nm, and the radioactivity of each fraction was assayed using a liquid scintillation counter.
as §2, §3

His-Xpress-sOMGnT(S) = biological target: T5, His-Xpress-sOMGnT(S) (Homo sapiens, UniProt Q8WZA1, M623V); assay: Substrate specificity and kinetic parameters of solubilized human OMGnT enzyme (S); assay type: biochemical; details: for OMGnT relative activity (%) His-Xpress-sOMGnT(S): as sugar receptor, activity with Man-peptide regarded as 100%
T5 construct: Ig kappa chain secretory signal (N); made in house; host or cells: HEK293T (transient, secreted into serum-free medium)
T5 sequence (Q8WZA1 247-660 M623V): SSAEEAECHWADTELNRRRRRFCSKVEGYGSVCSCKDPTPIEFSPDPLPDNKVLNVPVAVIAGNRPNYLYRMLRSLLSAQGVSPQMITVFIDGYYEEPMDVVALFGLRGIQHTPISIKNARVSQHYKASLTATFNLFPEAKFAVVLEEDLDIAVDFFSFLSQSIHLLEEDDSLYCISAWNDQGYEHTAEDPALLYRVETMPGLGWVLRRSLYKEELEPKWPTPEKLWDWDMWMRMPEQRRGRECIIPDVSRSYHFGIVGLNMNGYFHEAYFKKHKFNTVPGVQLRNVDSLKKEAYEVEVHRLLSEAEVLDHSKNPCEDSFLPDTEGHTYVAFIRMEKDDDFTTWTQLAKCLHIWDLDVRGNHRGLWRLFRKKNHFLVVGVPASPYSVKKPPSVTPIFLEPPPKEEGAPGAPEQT
Procedure: as §4, §2, §3

OMGnT [4] = assay: Substrate specificity of OMGnT expressed in animal cells (summary of properties); assay type: biochemical, human; details: reactivity toward mannosylnanopeptide regarded as 100%
Source text: The biochemical properties of the OMGnT: an enzyme protein massively expressed in animal cells as described above are as follows.

Question: Which “OMGnT activity, times higher than control (no plasmid), insoluble fraction” value (OMGnT [1]; insoluble fraction) does the source give for “OMGnT/pcDNA3.1zeo: expression plasmid for full-length human OMGnT (SEQ ID NO: 2), expressed in HEK293T; microsomal fractions assayed” here?
Answer: ~140 times

Question: And the “OMGnT activity, Insoluble fraction” value (OMGnT [1]; insoluble fraction of microsomal fraction, HEK293T)?
Answer: 243.9 pmol/hr/mg protein

Question: What about the “OMGnT activity, times higher than control (no plasmid), soluble fraction” value (OMGnT [1]; soluble fraction) of the same compound?
Answer: about 120 times

Question: And the “OMGnT activity, Soluble fraction” value (OMGnT [1]; soluble fraction of microsomal fraction, HEK293T)?
Answer: 182.7 pmol/hr/mg protein

Question: And the “OMGnT activity, Total” value (OMGnT [1]; soluble plus insoluble fraction)?
Answer: 426.6 pmol/hr/mg protein

Question: With `[Cl-].[Cl-].[Mg+2]` [MgCl2] as the compound, how does the “effect on OMGnT activity relative to Mn2+” value [2] read?
Answer: approximately 40%

Question: What about the “Relative activity of OMGnT (%)” value [2] of the same compound?
Answer: 39%

Question: With “His-Xpress-sOMGnT(L): solubilized human OMGnT, 595 amino acids 66:Ser to 660:Thr, secreted from HEK293T; plasmid named in Table 3” as the compound, how does the OMGnT activity (OMGnT [3]) read?
Answer: 15 pmol/hr/mg protein

Question: What about the “OMGnT activity (in words)” value (OMGnT [3]) of the same compound?
Answer: significantly high OMGnT activity

Question: What about the “GnT-I activity (in words)” value (GnT-I) of the same compound?
Answer: did not exhibit activity at all

Question: What does the source list for “Manα1–6(Manα1–3)Manβ1–4GlcNAcβ1–4GlcNAc-PA [M3GN2-PA]”?
Answer: OMGnT relative activity (%) His-Xpress-sOMGnT(L) (His-Xpress-sOMGnT(L)): 0%; OMGnT relative activity (%) His-Xpress-sOMGnT(S) (His-Xpress-sOMGnT(S)): 0%

Question: For “Manα1–6(Manα1–3)Manα1–6(Manα1–3)Manβ1–4GlcNAcβ1–4GlcNAc-PA [M5GN2-PA]”, which “OMGnT relative activity (%) His-Xpress-sOMGnT(L)” value (His-Xpress-sOMGnT(L)) is on record?
Answer: 0%

Question: What about the “OMGnT relative activity (%) His-Xpress-sOMGnT(S)” value (His-Xpress-sOMGnT(S)) of the same compound?
Answer: 0%

Question: With `[Cl][Mn][Cl]` [MnCl2] as the compound, how does the “concentration range at which the effect on OMGnT activity is the greatest” value [2] read?
Answer: 1 to 10 mM

Question: What about the “Relative activity of OMGnT (%)” value [2] of the same compound?
Answer: 100%

Question: And the “effect on OMGnT activity (in words)” value ([2]; listed as Mn^2+)?
Answer: greatest effect; also recorded: maximum effect

Question: What does the source list for `O=[N+]([O-])c1ccc(O[C@H]2O[C@H](CO)[C@@H](O)[C@H](O)[C@@H]2O)cc1` [p-nitrophenyl Man, p-nitrophenyl mannose]?
Answer: OMGnT relative activity (%) His-Xpress-sOMGnT(L) (His-Xpress-sOMGnT(L)): 0%; reactivity of the enzyme toward sugar receptor (OMGnT [4]): 0%; OMGnT relative activity (%) His-Xpress-sOMGnT(S) (His-Xpress-sOMGnT(S)): 0%

Question: Which “OMGnT relative activity (%) His-Xpress-sOMGnT(L)” value (His-Xpress-sOMGnT(L)) does the source give for `CC(=O)N[C@@H](C)C(=O)N[C@@H](C)C(=O)N1CCC[C@H]1C(=O)N[C@H](C(=O)N1CCC[C@H]1C(=O)N[C@H](C(=O)N[C@@H](C)C(=O)N[C@@H](C)C(=O)N1CCC[C@H]1C(N)=O)C(C)C)[C@@H](C)O[C@H]1O[C@H](CO)[C@@H](O)[C@H](O)[C@@H]1O` [Man-peptide, Ac-Ala-Ala-Pro-Thr(Man)-Pro-Val-Ala-Ala-Pro-NH2] (Ac-AAPT(αMan)PVAAP-NH2) here?
Answer: 100%

Question: And the “OMGnT relative activity (%) His-Xpress-sOMGnT(S)” value (His-Xpress-sOMGnT(S))?
Answer: 100%

Question: Which Km (His-Xpress-sOMGnT(L); 125 mM MOPS pH7.3, 0.4 mM Man-peptide, 7.5 mM MnCl2, 37° C., 2 hours, read-out: apparent Km value of His-Xpress-sOMGnT(L) toward UDP-GlcNAc) does the source give for `CC(=O)N[C@H]1[C@@H](OP(=O)(O)OP(=O)(O)OC[C@H]2O[C@@H](n3ccc(=O)[nH]c3=O)[C@H](O)[C@@H]2O)O[C@H](CO)[C@@H](O)[C@@H]1O` [UDP-GlcNAc] here?
Answer: 730 µM

Question: And the Km (His-Xpress-sOMGnT(S); 125 mM MOPS pH7.3, 0.4 mM Man-peptide, 7.5 mM MnCl2, 37° C., 2 hours, read-out: apparent Km value of His-Xpress-sOMGnT(S) toward UDP-GlcNAc)?
Answer: 570 µM

Question: How did the “effect on OMGnT activity (in words)” value [2] turn out when `[Ca+2].[Cl-].[Cl-]` [CaCl2] was run?
Answer: weak effect

Question: And the “effect on OMGnT activity relative to Mn2+” value [2]?
Answer: approximately 15%

Question: What about the “Relative activity of OMGnT (%)” value [2] of the same compound?
Answer: 15%
